Measurements taken from US20040146535A1, “Agent for improving tissue penetration” (priority 2001, published 2004).

What was measured:
[1] = system: porcine brain microvascular endothelial cells (PBEC); test: Transport (permeation) across PBEC monolayers on Transwell filter inserts, in vitro model of the blood-brain barrier
Text: (§1) Monolayers of primary cultures of porcine brain microvascular endothelial cells (PBEC) represent an in vitro model of the blood-brain barrier. They form monolayers under standard culture conditions both on various collagen coated solid substrates and permeable filters of polycarbonate. The PBEC-monolayer grows on the filter membranes in polarized manner with the apical side representing the capillary lumen but the basolateral side corresponding to brain tissue. As soon as the cells become confluent and build up a tight layer after 7 days PBEC are ready to be used for transport experiments. Due to the formation of functional tight junctions, they show a high transendothelial electrical resistance (TEER) and a tight barrier is created with biological properties similar to the cerebral capillary endothelium
(§2) The PBEC cells were cultivated in M199, which was supplemented with 10% OS, 0.7 mM L^−1 glutamine, 10,000 U·mL^−1 penicillin/streptomycin and 50·μg mL^−1 gentamicin at 37° C., 5% CO2 and saturated humidity. The cells were subcultivated after being detached with trypsin-EDTA solution and sown on Transwell(r) filter inserts (Costar®, Wiesbaden, Germany). The filters consist of polycarbonate with a surface of 1.13 cm2 and a pore diameter of 0.4 μm.
(§3) The growth of the PBEC into confluent, differentiated monolayers on Transwell® filter inserts was verified by measurements of the TEER. […] Fluorescein passes the monolayer paracellularly, whereas propranolol is transported transcellularly. The transport studies were carried out directly on the Transwell® plates. The culture medium M199 in the apical and the basolateral compartment was replaced by serum free medium DME/Ham's F12 supplemented as described for M199 and with 0.2 μg·mL^−1 hydrocortisone one day prior to the experiment. All transport experiments involving cell-cultures were carried out as triplicates. For application of substances on the apical side half of the medium of aspirated, mixed with appropriate stock solution of the substance to be investigated and replaced onto the filter. For qualification of transcellular transport by propranolol, KRB replaced the DME/Ham's F12 as transport buffer. For transport across cell free filter inserts, the complete medium in the apical compartment was removed, mixed with stock solution and replaced into the donor compartment. […] Propranolol was dissolved in KRB (pH 7.4). Samples were collected at 15′, 30′, 45′, 60′, and 90′ from the acceptor, at 0′ and 90′ from the donor compartment and the sample volume was replaced by fresh transport buffer. Prior to the experiment and after the final sampling, the TEER of the monolayers was measured.
(§4) The apparent permeability coefficient (Papp, [cm·s^−1]) was calculated according to equation 1, where dQ/dt is the permeability rate (steady state transport rate, [μg·s^−1]) obtained from the profile of the transported amount of the substrate against the time. A (1.13 cm^2) is the surface of the exposed cell monolayer, m0 the original mass [μg] of the marker substance in the donor compartment (VDonor 0.5 mL). The effective barrier function of the cell-layer is calculated from the apparent permeation coefficient and the permeation coefficient of the cell-free filter according to equation 2. In case that Papp is of higher magnitude than Pfilter, negative permeability coefficients would be calculated. Negative values for Peff are unsensical, thus an unhindered penetration of the cell-layer is to be drawn as conclusion. [formula]
(§5) In order to find an appropriate concentration affecting the permeation across the BBB, four different concentrations of hexyldiglycerol (HexylG2) were checked for their influence on fluorescein permeation and transendothelial electrical resistance.

[2] = system: porcine brain microvascular endothelial cells (PBEC); test: Transendothelial electrical resistance (TEER) of PBEC monolayers; type: cell-based
Experimental: […]. Propranolol was dissolved in KRB (pH 7.4).
Since a more distinct effect was expected from in vivo findings, a concentration of 75 mM HexylG2 was selected to be tested with further impermeable markers.

in vitro = conditions: pig, permeability coefficient for fluorescein
Text: as §1, §2, §3, §4, §5

## hexyldiglycerol [HexylG2]
[1]; 0.1 mM, 1 mM and 10 mM of HexylG2
  effect on the tightness of the model barrier (fluorescein permeation and TEER): no effect
[1]; 50 mM HexylG2 versus w/o
  enhancement of the penetration (permeability) of fluorescein: about twofold
[1]; treatment of PBEC monolayers, Example 4
  monolayer permeability towards glucose, inulin and glycerol: significantly increased
[2]; 50 mM HexylG2 (Table 1 experiment)
  change in TEER: decrease in TEER
[2]; 75 mM HexylG2 (Table 2 experiment)
  change in TEER: complete loss of TEER

## OCC(O)CO [^14C-glycerol, glycerol, reference compound]
[1]; pig, 90 min
  Peff, permeability coefficient of paracellular-transport marker: 9.6e-07 cm/s

## O=C1OC2(c3ccc(O)cc3Oc3cc(O)ccc32)c2ccccc21 [fluorescein, reference compound]
In vitro; Papp
  Papp A→B at 90 min: 0.28 ×10⁻⁶ cm/s
In vitro; Peff
  Papp A→B at 90 min: 0.29 ×10⁻⁶ cm/s
